# From EP0345955B1, “Anti-microbial composition and use thereof” (IMPERIAL CHEMICAL INDUSTRIES PLC, priority 1988, dated 1989)
# System: mixed fungal spore suspension of Alternaria alternata, Aureobasidium pullulans, Cladosporium herbarum, Phoma violacea, and Stemphylium dendriticum
# Test: Evaluation as a paint film fungicide (acrylic emulsion paint on wooden test pieces, spray inoculated)
# Type: cell-based
# Settings: 25°C, four weeks, two scores per cell; for Fungal Growth L2: L2 (leached for two days); for Fungal Growth UL: UL (test pieces not leached); for Fungal Growth L1: L1 (leached with water spray for one day)
# Procedure: In the following examples, the compositions obtained were subjected to microbiological evaluation as paint film fungicides. The compositions were also tested for anti-algal properties. The microbiological testing was effected as follows: The products were tested for activity against fungi which were one or more of Alternaria alternata, Aureobasidum pullulans, Cladosporium herbarum, Phoma violacea and Stemphylium dendriticum.
# The compositions to be tested were obtained as described in Examples 1 to 6 and the Comparative Examples. The compositions were added as a solid blend to samples of an exterior acrylic emulsion paint (based on Revacryl 1A latex at pH 9) in glass bottles and mixed to give final active ingredient levels in the paint of 1.0, 0.5 and 0.25% w/v.
# The bottles containing paint plus biocide composition were sealed and stored at 40°C for three days.
# Small wooden test pieces were prepared for each paint composition by priming and then brushing on two full even coats.
# One set of the coated test pieces was stored at ambient temperature in the dark. A further set of coated test pieces was placed in a leaching device in which the test pieces were sprayed with water for one day and the test pieces were removed from the leaching device and dried. Yet a further set of coated test pieces was subjected to leaching for two days.
# The coated test pieces were then transferred to a high humidity chamber. Each test piece was then spray inoculated with a mixed fungal spore suspension of Alternaria alternata, Aureobasidium pullulans, Cladosporium herbarum, Phoma violacea, and Stemphylium dendriticum.
# Incubation was carried out at 25°C for four weeks. After this period the paint films were examined for fungal growth by naked eye and by stereo optical microscope.
# The compositions of Examples 1 to 6 and the Comparative Examples were evaluated as paint film fungicides using the technique described previously herein. For comparative purposes paints containing only tetrachloroisophthalonitrile (NC); 3-(3,4-dichlorophenyl)-1,1-dimethylurea (DU); 2,3,5,6-thetrachloro-4-(methylsulphonyl) pyridine (DS); di-iodomethyl-4-methylphenylsulphone (AM); or zinc oxide (ZO) were also evaluated under the same conditions.
# [1] = 0.25% w/v active ingredient in paint
# [2] = 0.5% w/v active ingredient in paint
# [3] = 1.0% w/v active ingredient in paint
SMILES,Fungal Growth L2 [1],Fungal Growth UL [1],Fungal Growth L2 [2],Fungal Growth UL [2],Fungal Growth L2 [3],Fungal Growth UL [3],Fungal Growth L1 [1],Fungal Growth L1 [2],Fungal Growth L1 [3]
"Cc1ccc(S(=O)(=O)C(I)I)cc1 [AM, di-iodomethyl-4-methylphenylsulphone]","4,4","0,0","1,2","0,0","0,0","0,0",–,–,–
"CS(=O)(=O)c1c(Cl)c(Cl)nc(Cl)c1Cl [DS, 2,3,5,6-tetrachloro-4-(methylsulphonyl)pyridine]","5,4","2,2","2,3","1,1","1,0",0.1,–,–,–
"CN(C)C(=O)Nc1ccc(Cl)c(Cl)c1 [DU, 3-(3,4-dichlorophenyl)-1,1-dimethylurea]",–,–,–,–,"5,5","5,5",–,–,–
"N#Cc1c(Cl)c(Cl)c(Cl)c(C#N)c1Cl [NC, tetrachloroisophthalonitrile]","5,5","3,4","3,5","2,3","4,5","0,0","4,4","4,5","2,5"
